One test addresses T1, recombinant human CK2 (Homo sapiens, UniProt P68400).
T1 construct: purchased Millipore
Put plainly: CK2 Kinase Assay (33P-ATP, substrate peptide RRRDDDSDDD). It is filed as biochemical. The note with it: final ATP concentration 15 μM, 10 min at 30° C.; read-out: protein kinase CK2 IC50. The protocol:
CK2 Kinase Assay was conducted using the protocol as described in Pierre F. et al; J. Med. Chem. 2011, 54, 635-654. The tested compounds in aqueous solution were added at a volume of 10 μL to a reaction mixture comprising 10 μL of assay dilution buffer (ADB; 20 mM MOPS, pH 7.2, 25 mM β-glycerol phosphate, 5 mM EGTA, 1 mM sodium orthovanadate, and 1 mM dithiothreitol), 10 μL of substrate peptide (RRRDDDSDDD, dissolved in ADB at a concentration of 1 mM), 10 μL of recombinant human CK2 (RROP-holoenzyme, 25 ng dissolved in ADB; Millipore). Reactions were initiated by the addition of 10 μL of ATP solution (90% 75 mMMgCl2, 75 μM ATP (final ATP concentration: 15 μM) dissolved in ADB; 10% [γ-33P] ATP (stock 1 mCi/100 L; 3000 Ci/mmol (Perkin-Elmer) and maintained for 10 min at 30° C. The reactions were quenched with 100 μL of 0.75% phosphoric acid and then transferred to and filtered through a phosphor cellulose filter plate (Millipore). After washing each well five times with 0.75% phosphoric acid, the plate was dried under vacuum for 5 min and, following the addition of 15 μL of scintillation fluid to each well, the residual radioactivity was measured using a Wallac luminescence counter. The IC50 values were derived from eight concentrations of test inhibitors.

The subject of a further test is HL60 (leukemia). In words: In vitro cytotoxic activity assay (MTT), HL60. It is filed as cell-based. To be noted: Homo sapiens, HL-60; HL60 (leukemia) cells, exposed for 96 hours; read-out: IC50, concentration eliciting 50% inhibition of cell proliferation. The protocol: (§1) Compounds 1-15 were screened for their in vitro cytotoxic activity utilizing a 3-(4,5-dimethyl-thiazol-2-yl)-2,5-diphenyltetrazolium bromide (MTT) assay against selected cancer human cell lines consisting of PC3 (prostate), HCT116 (colon), A375 (melanoma), H1299 (lung), MIAPaCa-2 (pancreas), HL60 (leukemia), MCF7 (breast), MDA-MB-231 (breast) (T. Mosmann, J. Immunol. Meth., 1983, 65, 55-63). The cells were cultured at 37° C. in RMPI1640 medium supplemented with 10% fetal bovine serum, 50 IU/mL penicillin, and 50 μg/mL streptomycin in a 5% CO2 incubator. All cells were sub-cultured 3 times/week by trypsinisation. Viable cells were seeded and allowed to adhere for 12 h before a test drug was added in 96-well plates at an initial density of 1.0×10^5 cells/mL. Tumour cell lines were separately exposed to various concentrations of the tested compounds followed by incubation at a temperature of 37° C. during 96 h inside a medium of fresh RMPI 1640. Cells were subsequently incubated at 37° C. using MTT at 0.5 mg/mL during 4 h. After removal of supernatant, formazan crystals were dissolved in isopropanol and the optical density was measured at 570 nm. CX-4945 was used as a positive control.

For a further test, the system named is PC3 (prostate). In words: In vitro cytotoxic activity assay (MTT), PC3. To be noted: Homo sapiens, Prostate cell; PC3 (prostate) cells, exposed for 96 hours; read-out: IC50, concentration eliciting 50% inhibition of cell proliferation. It is filed as cell-based. The protocol: as §1
The test system of the next test is H1299 (lung). In words: In vitro cytotoxic activity assay (MTT), H1299. The test is classed as cell-based. To be noted: Homo sapiens, NCI-H1299; H1299 (lung) cells, exposed for 96 hours; read-out: IC50, concentration eliciting 50% inhibition of cell proliferation. The protocol: as §1
Another test concerns MDA-MB-231 (breast). In words: In vitro cytotoxic activity assay (MTT), MDA-MB-231. It is filed as cell-based. The note with it: Homo sapiens; MDA-MB-231 (breast) cells, exposed for 96 hours; read-out: IC50, concentration eliciting 50% inhibition of cell proliferation. The protocol: as §1
A further test deals with MIAPaCa-2 (pancreas). In words: In vitro cytotoxic activity assay (MTT), MIAPaCa-2. The test is classed as cell-based. The note with it: Homo sapiens, MIA PaCa-2; MIAPaCa-2 (pancreas) cells, exposed for 96 hours; read-out: IC50, concentration eliciting 50% inhibition of cell proliferation. The protocol:
as §1

The next test deals with HCT116 (colon). Put plainly: In vitro cytotoxic activity assay (MTT), HCT116. To be noted: Homo sapiens, HCT-116; HCT116 (colon) cells, exposed for 96 hours; read-out: IC50, concentration eliciting 50% inhibition of cell proliferation. It is filed as cell-based. The protocol:
as §1

For the next test, the system named is A375 (melanoma). In words: In vitro cytotoxic activity assay (MTT), A375. The test is classed as cell-based. The note with it: Homo sapiens, A-375; A375 (melanoma) cells, exposed for 96 hours; read-out: IC50, concentration eliciting 50% inhibition of cell proliferation. The protocol:
as §1

Another test relates to MCF7 (breast). In words: In vitro cytotoxic activity assay (MTT), MCF7. It is filed as cell-based. The note with it: Homo sapiens; MCF7 (breast) cells, exposed for 96 hours; read-out: IC50, concentration eliciting 50% inhibition of cell proliferation. The protocol:
as §1

T1 sequence (P68400 whole entry): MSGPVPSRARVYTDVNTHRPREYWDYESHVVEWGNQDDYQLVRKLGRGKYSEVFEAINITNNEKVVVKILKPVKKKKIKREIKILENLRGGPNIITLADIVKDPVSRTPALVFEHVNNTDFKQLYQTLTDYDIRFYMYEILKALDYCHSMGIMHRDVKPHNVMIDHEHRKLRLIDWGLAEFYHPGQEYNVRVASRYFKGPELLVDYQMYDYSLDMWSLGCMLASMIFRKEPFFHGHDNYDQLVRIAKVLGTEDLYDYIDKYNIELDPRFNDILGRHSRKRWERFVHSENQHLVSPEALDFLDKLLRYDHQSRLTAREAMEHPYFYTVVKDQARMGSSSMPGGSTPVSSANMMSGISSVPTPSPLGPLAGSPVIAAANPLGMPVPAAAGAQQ
T1 sequence (P67870 whole entry partner): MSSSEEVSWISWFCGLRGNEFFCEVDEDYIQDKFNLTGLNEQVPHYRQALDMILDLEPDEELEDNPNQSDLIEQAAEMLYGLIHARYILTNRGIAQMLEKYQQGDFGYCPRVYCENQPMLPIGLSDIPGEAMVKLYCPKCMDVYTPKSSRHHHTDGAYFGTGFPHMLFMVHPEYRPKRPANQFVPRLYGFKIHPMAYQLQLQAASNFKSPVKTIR

With `Clc1cccc(-n2c3ccncc3c3nc4cnccn4c32)c1` [Compound 1, 5-(3-chlorophenyl)-5H-pyrido[3″,4″:4′,5′]pyrrolo[3′,2′:4,5]imidazo[1,2-a]pyrazine], the IC50 was 47 nM at recombinant human CK2; 3000 nM in the test with HL60 (leukemia); 1500 nM in the test on PC3 (prostate); 2100 nM with H1299 (lung); 3900 nM with MDA-MB-231 (breast); 1200 nM in the test with MIAPaCa-2 (pancreas). The IC50 with HCT116 (colon) turned out to be 1900 nM; in the test on A375 (melanoma), 4400 nM; in the test on MCF7 (breast), 5600 nM.

For the origin of these results see patent US11891396B1, “5-substituted pyrido[3″,4″:4′,5′]pyrrolo[3′,2′:4,5]imidazo[1,2-a]pyrazine compounds as CK2 inhibitors” (KING FAISAL UNIVERSITY, priority 2023, dated 2024).
